# Experiments:
# Assay type in all cases: in vivo
# mice [1] = test: behavioural response (paw licking) after subcutaneous formaline in mice; details: 1% formaline s.c. 20 µl, 5 µl, 0.01% (0.5 µg) of guanfacine i.th. 15 minutes before, ± S.E.M., 10 animals
# Protocol: Behavioural response in mice after subcutaneous injection of 20 µl of a physiological solution of sodium chloride or a 1 % solution of formaline on the dorsum of either hind paw.
# 5 µl, 0.01% ([…]) of guanfacine or the same volume of a physiological solution of sodium chloride were injected intrathetecally 15 minutes before the subcutaneous injection of formaline. The accumulated reaction, i.e. the total time of licking on the injected paw, was measured during the 5 minutes after the injection of formaline.
# The results are expressed as mean accumulated response during 5 minutes in seconds ± S.E.M. Each group consisted of 10 animals.
# mice [2] = test: hot-plate test after intrathecal injection in mice; design: unit not given here; details: 15 minutes after intrathecal injection of 5 µl, mean ± S.E.M.
# Protocol: (§1) Antinociceptive effects in mice were established in the following test. The effect 15 minutes after intrathecal injection of a volume of 5 µl containing different doses of guanfacine was established. The vehicle used was a physiological solution of sodium chloride.
# mice [3] = test: tail-flick test after intrathecal injection in mice; design: unit not given here; details: 15 minutes after intrathecal injection of 5 µl, mean ± S.E.M.
# Protocol: as §1
# male Sprague-Dawley rats [4] = test: tail-flick test after intrathecal injection in rats; design: unit not given here; details: rat, mean ± S.E.M.
# Protocol: (§2) The antinociceptive effect of guanfacine may be established by the hot plate and tail-flick test.
# (§3) Testing of tail-flick was performed using an IITC Inc. Mod. 33 Analgesia- meter@, with the light focused on the tip of the tail (d'Amour, F.E. and Smith, D.L. J. Pharmacol. Exp. Ther. 72, 74, 1941). The intensity of the beam was adjusted to give a reaction time of 3-4 sec. before intrathecal injection of the drug solutions. For the hot plate testing, a modification of the Eddy and Leimbach method (Eddy, N.B. and Leimbach, D. J. Pharmacol. Exp. Ther. 107, 385, 1952) was used. An IITC Inc. Mod. 35-D Analgesiameter® was set at a temperature of 58^±0.2°C. The criteria for a pain response was licking of either of the hindpaws.
# (§4) We examined the pain responsiveness of male Sprague-Dawley rats in a weight range of 300-350 g. […] The catheter was fixed at a surgical operation. The animals were kept in the animal colony in separate cages until testing took place 1 week after operation. The drug was administered in a volume of 15 µl, and testing of hot plate and tail-flick reaction latencies took place at the intervals given in the tables. Animals given the combination of guanfacine and bupivacaine were not tested until the local anaesthetic effect of bupivacaine had disappeared, which normally took between 10 and 15 minutes.
# (§5) Guanfacine or a physiologically acceptable salt thereof was administered alone or in combination with the local anaesthetic agent bupivacaine or a physiologically acceptable salt thereof. When guanfacine'was administered together with bupivacaine first an initial phase of regional anaesthesia restricted to the hind-legs and the lower derma- tomes was obtained. When this effect had disappeared the animals were still non-responsive in the hot plate and tail-flick test for up to at least 7 hours after the injection, cf Table 2 below.
# male Sprague-Dawley rats [5] = test: hot plate test after intrathecal injection in rats; design: unit not given here; details: rat, mean ± S.E.M.
# Protocol: as §2, §3, §4, §5
# [6] = 0.001 % guanfacine, dose 0.05 µg
# [7] = 0.002 % guanfacine, dose 0.1 µg
# [8] = 0.004 % guanfacine, dose 0.2 µg
# [9] = 0.006 % guanfacine, dose 0.3 µg
# [10] = intrathecal 75 µg guanfacine (15 µl 0.5 %), 1 min, 100x(test-latency - pre-drug latency)/pre-drug latency, n=4
# [11] = intrathecal 75 µg guanfacine, 5 min
# [12] = intrathecal 75 µg guanfacine, 10 min
# [13] = intrathecal 75 µg guanfacine, 20 min
# [14] = intrathecal 75 µg guanfacine, 30 min
# [15] = intrathecal 75 µg guanfacine, 45 min
# [16] = intrathecal 75 µg guanfacine, 8 hours
# [17] = intrathecal 75 µg guanfacine, 22 hours
compound,measurement,setting,value
"N=C(N)NC(=O)Cc1c(Cl)cccc1Cl [guanfacine, 2,6-dichlorophenyl-acetyl-guanidine]",mean accumulated response (total time of licking on the injected paw) during 5 minutes,mice [1],9 ± 2 s
same,Antinociception hot-plate (cut-off=30 sec),mice [2]; [6],128±29
same,Antinociception hot-plate (cut-off=30 sec),mice [2]; [7],152±33
same,Antinociception hot-plate (cut-off=30 sec),mice [2]; [8],152±47
same,Antinociception hot-plate (cut-off=30 sec),mice [2]; [9],168±40
same,Antinociception tail-flick (cut-off=10 sec),mice [3]; [6],29±23
same,Antinociception tail-flick (cut-off=10 sec),mice [3]; [7],26±13
same,Antinociception tail-flick (cut-off=10 sec),mice [3]; [8],59±17
same,Antinociception tail-flick (cut-off=10 sec),mice [3]; [9],86±18
same,Antinociception tail-flick (cut-off=10 sec.),male Sprague-Dawley rats [4]; [10],27.5±17
same,Antinociception tail-flick (cut-off=10 sec.),male Sprague-Dawley rats [4]; [11],92.75±26
same,Antinociception tail-flick (cut-off=10 sec.),male Sprague-Dawley rats [4]; [12],110±33
same,Antinociception tail-flick (cut-off=10 sec.),male Sprague-Dawley rats [4]; [13],147±13
same,Antinociception tail-flick (cut-off=10 sec.),male Sprague-Dawley rats [4]; [14],153±10
same,Antinociception tail-flick (cut-off=10 sec.),male Sprague-Dawley rats [4]; [15],156±8
same,Antinociception tail-flick (cut-off=10 sec.),male Sprague-Dawley rats [4]; [16],138±20
same,Antinociception tail-flick (cut-off=10 sec.),male Sprague-Dawley rats [4]; [17],62±8
same,Antinociception hot plate (cut-off=30 sec.),male Sprague-Dawley rats [5]; [10],-15±12
same,Antinociception hot plate (cut-off=30 sec.),male Sprague-Dawley rats [5]; [11],-15±6
same,Antinociception hot plate (cut-off=30 sec.),male Sprague-Dawley rats [5]; [12],29±18
same,Antinociception hot plate (cut-off=30 sec.),male Sprague-Dawley rats [5]; [13],62±29
same,Antinociception hot plate (cut-off=30 sec.),male Sprague-Dawley rats [5]; [14],116±36
same,Antinociception hot plate (cut-off=30 sec.),male Sprague-Dawley rats [5]; [15],239±23
same,Antinociception hot plate (cut-off=30 sec.),male Sprague-Dawley rats [5]; [16],124±56
same,Antinociception hot plate (cut-off=30 sec.),male Sprague-Dawley rats [5]; [17],41±12
same,Antinociception hot plate (cut-off=30 sec.),"male Sprague-Dawley rats [5]; intrathecal 75 µg guanfacine, 27 hours",25±16

# From patent publication EP0164320A1, “Pharmaceutical preparations for spinal analgesia containing guanfacine, and method for their preparation” (priority 1984, dated 1985)
